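These data come from cells grown in 96-well plates and exposed to compound for 48 hours at five concentrations. Abbreviation: GI50, concentration required for 50% inhibition of growth. The concentration for full growth arrest is given as TGI.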
Legend:
Assay in all cases: NCI anticancer screen, dose series, 48 h
[1] = test system: IGROV1 ovarian
[2] = test system: HOP-62 NSCLC
[3] = test system: KM12 colon
[4] = test system: UACC-257 melanoma
[5] = test system: HOP-92 NSCLC
[6] = test system: SK-OV-3 ovarian
[7] = test system: MDA-MB-231 breast
[8] = test system: U251 CNS
[9] = test system: OVCAR-8 ovarian
[10] = test system: HCC-2998 colon
[11] = test system: MALME-3M melanoma
[12] = test system: SF-539 CNS
[13] = test system: NCI-H460 lung
[14] = test system: OVCAR-5 ovarian
[15] = test system: HL-60(TB) leukemia
[16] = test system: DU-145 prostate
[17] = test system: CCRF-CEM leukemia
[18] = test system: OVCAR-4 ovarian
[19] = test system: EKVX NSCLC
[20] = test system: UO-31 renal
[21] = test system: LOX IMVI melanoma
[22] = test system: SW-620 colon
[23] = test system: 786-0 renal
[24] = test system: HCT-15 colon
[25] = test system: M14 melanoma
[26] = test system: MDA-MB-435
[27] = test system: COLO 205 colon
[28] = test system: HCT-116 colon
[29] = test system: HT29 colon
[30] = test system: SN12C renal
[31] = test system: SK-MEL-5 melanoma
[32] = test system: SR leukemia
[33] = test system: NCI-H522 lung
[34] = test system: MOLT-4 leukemia
[35] = test system: BT-549 breast
[36] = test system: SNB-19 CNS
[37] = test system: SK-MEL-2 melanoma
[38] = test system: PC-3 prostate
[39] = test system: SK-MEL-28 melanoma
[40] = test system: RXF 393 renal
[41] = test system: UACC-62 melanoma
[42] = test system: NCI/ADR-RES ovarian
[43] = test system: T-47D breast
[44] = test system: MCF7 breast
[45] = test system: CAKI-1 renal
[46] = test system: A549 NSCLC
[47] = test system: SNB-75 CNS
[48] = test system: OVCAR-3 ovarian
[49] = test system: NCI-H23 lung
[50] = test system: K-562 leukemia
[51] = test system: NCI-H226 lung
[52] = test system: A498 renal
[53] = test system: SF-268 CNS
[54] = test system: TK-10 renal
[55] = test system: RPMI-8226 leukemia
[56] = test system: ACHN renal
[57] = test system: HS 578T breast
[58] = test system: SF-295 CNS

Compound: C#CCOc1cccc(Nc2ncnc3c(NC(=O)C=C)cccc23)c1
- GI50 [1]: 17.8 µM
- TGI [1]: 44.9 µM
- GI50 [2]: 27.8 µM
- TGI [2]: > 100 µM
- GI50 [3]: 20.3 µM
- TGI [3]: > 100 µM
- GI50 [4]: 31.4 µM
- TGI [4]: > 100 µM
- GI50 [5]: 13.6 µM
- TGI [5]: 42.6 µM
- GI50 [6]: 38.2 µM
- TGI [6]: > 100 µM
- GI50 [7]: 20.7 µM
- TGI [7]: > 100 µM
- GI50 [8]: 30.4 µM
- TGI [8]: > 100 µM
- GI50 [9]: 21 µM
- TGI [9]: 70.1 µM
- GI50 [10]: 17.7 µM
- TGI [10]: 33.9 µM
- GI50 [11]: 18.5 µM
- TGI [11]: 52 µM
- GI50 [12]: 14 µM
- TGI [12]: 36 µM
- GI50 [13]: 27 µM
- TGI [13]: 80.4 µM
- GI50 [14]: 27.6 µM
- TGI [14]: > 100 µM
- GI50 [15]: 18.9 µM
- TGI [15]: > 100 µM
- GI50 [16]: 18.1 µM
- TGI [16]: > 100 µM
- GI50 [17]: 16.5 µM
- TGI [17]: > 100 µM
- GI50 [18]: 37.8 µM
- TGI [18]: > 100 µM
- GI50 [19]: 28.3 µM
- TGI [19]: > 100 µM
- GI50 [20]: 13.4 µM
- TGI [20]: 87.5 µM
- GI50 [21]: 15.7 µM
- TGI [21]: 46.4 µM
- GI50 [22]: 25.8 µM
- TGI [22]: > 100 µM
- GI50 [23]: 19.1 µM
- TGI [23]: 52.7 µM
- GI50 [24]: 12.6 µM
- TGI [24]: 81.8 µM
- GI50 [25]: 19.4 µM
- TGI [25]: 67.8 µM
- GI50 [26]: 7.14 µM
- TGI [26]: 77.7 µM
- GI50 [27]: 24.6 µM
- TGI [27]: 73.4 µM
- GI50 [28]: 17 µM
- TGI [28]: 85.9 µM
- GI50 [29]: 19.3 µM
- TGI [29]: 98.8 µM
- GI50 [30]: 16.5 µM
- TGI [30]: 62.6 µM
- GI50 [31]: 14.8 µM
- TGI [31]: 33.1 µM
- GI50 [32]: 4.37 µM
- TGI [32]: > 100 µM
- GI50 [33]: 14.1 µM
- TGI [33]: 32.6 µM
- GI50 [34]: 19.4 µM
- TGI [34]: > 100 µM
- GI50 [35]: 13.9 µM
- TGI [35]: 89.9 µM
- GI50 [36]: 39.5 µM
- TGI [36]: > 100 µM
- GI50 [37]: 19.8 µM
- TGI [37]: 63.7 µM
- GI50 [38]: 15.9 µM
- TGI [38]: 67.1 µM
- GI50 [39]: 20.6 µM
- TGI [39]: 88.6 µM
- GI50 [40]: 13.3 µM
- TGI [40]: 39.7 µM
- GI50 [41]: 12.3 µM
- TGI [41]: 37.3 µM
- GI50 [42]: 19.8 µM
- TGI [42]: 98.1 µM
- GI50 [43]: 18.2 µM
- TGI [43]: 78.4 µM
- GI50 [44]: 21.2 µM
- TGI [44]: > 100 µM
- GI50 [45]: 26.4 µM
- TGI [45]: > 100 µM
- GI50 [46]: 30.9 µM
- TGI [46]: > 100 µM
- GI50 [47]: 17.6 µM
- TGI [47]: > 100 µM
- GI50 [48]: 16.5 µM
- TGI [48]: 91.5 µM
- GI50 [49]: 24.8 µM
- TGI [49]: > 100 µM
- GI50 [50]: 7.87 µM
- TGI [50]: > 100 µM
- GI50 [51]: 25.5 µM
- TGI [51]: 69.1 µM
- GI50 [52]: 24.4 µM
- TGI [52]: 64.4 µM
- GI50 [53]: 27.7 µM
- TGI [53]: > 100 µM
- GI50 [54]: 19.2 µM
- TGI [54]: 69.2 µM
- GI50 [55]: 8.46 µM
- TGI [55]: 47.2 µM
- GI50 [56]: 17.8 µM
- TGI [56]: 63.4 µM
- GI50 [57]: 30.3 µM
- TGI [57]: > 100 µM
- GI50 [58]: 27.4 µM
- TGI [58]: > 100 µM

Compound: COc1ccc(-c2nccn2-c2ccc(OC)cc2)cc1
- GI50 [1]: 25.2 µM
- TGI [1]: > 82 µM
- GI50 [2]: 22 µM
- TGI [2]: 74.4 µM
- GI50 [3]: 17.9 µM
- TGI [3]: 65.3 µM
- GI50 [4]: 26 µM
- TGI [4]: > 88 µM
- GI50 [5]: 2.45 µM
- TGI [5]: > 41.7 µM
- GI50 [6]: 22.8 µM
- TGI [6]: 93.6 µM
- GI50 [7]: 16.4 µM
- TGI [7]: 57.5 µM
- GI50 [8]: 26.3 µM
- TGI [8]: > 72.9 µM
- GI50 [9]: 23.9 µM
- TGI [9]: 67.5 µM
- GI50 [10]: 16.4 µM
- TGI [10]: 33.7 µM
- GI50 [11]: 15.9 µM
- TGI [11]: 50.3 µM
- GI50 [12]: 28 µM
- TGI [12]: 90.4 µM
- GI50 [13]: 17.9 µM
- TGI [13]: 60.7 µM
- GI50 [14]: 25 µM
- TGI [14]: > 100 µM
- GI50 [15]: 14.2 µM
- TGI [15]: 34.2 µM
- GI50 [16]: 33.3 µM
- TGI [16]: > 93.8 µM
- GI50 [17]: 23.5 µM
- TGI [17]: 76.7 µM
- GI50 [18]: 30.2 µM
- TGI [18]: > 100 µM
- GI50 [19]: 41.5 µM
- TGI [19]: > 100 µM
- GI50 [20]: 23.3 µM
- TGI [20]: > 82 µM
- GI50 [21]: 32.2 µM
- TGI [21]: 97.9 µM
- GI50 [22]: 25 µM
- TGI [22]: > 100 µM
- GI50 [23]: 21.9 µM
- TGI [23]: 60.6 µM
- GI50 [24]: 23.1 µM
- TGI [24]: > 67.2 µM
- GI50 [25]: 20.5 µM
- TGI [25]: 56.7 µM
- GI50 [26]: 7.53 µM
- TGI [26]: 35.1 µM
- GI50 [27]: 28.3 µM
- TGI [27]: > 100 µM
- GI50 [28]: 16.4 µM
- TGI [28]: 44.4 µM
- GI50 [29]: 13 µM
- TGI [29]: 32.9 µM
- GI50 [30]: 20.8 µM
- TGI [30]: 50.3 µM
- GI50 [31]: 14.2 µM
- TGI [31]: 30.4 µM
- GI50 [32]: 0.64 µM
- TGI [32]: 30.8 µM
- GI50 [33]: 17 µM
- TGI [33]: 42.9 µM
- GI50 [34]: 27.4 µM
- TGI [34]: 89.4 µM
- GI50 [35]: 28.7 µM
- TGI [35]: > 94.5 µM
- GI50 [36]: 41.8 µM
- TGI [36]: > 100 µM
- GI50 [37]: 25.3 µM
- TGI [37]: > 73.5 µM
- GI50 [38]: 24.9 µM
- TGI [38]: > 100 µM
- GI50 [39]: 19.1 µM
- TGI [39]: 60.6 µM
- GI50 [40]: 17.9 µM
- TGI [40]: > 80.5 µM
- GI50 [41]: 13.9 µM
- TGI [41]: 48.9 µM
- GI50 [42]: 20.5 µM
- TGI [42]: 49.4 µM
- GI50 [43]: 65.4 µM
- TGI [43]: > 100 µM
- GI50 [44]: 24.4 µM
- TGI [44]: > 66.1 µM
- GI50 [45]: 22.9 µM
- TGI [45]: > 69.5 µM
- GI50 [46]: 25.1 µM
- TGI [46]: > 80.5 µM
- GI50 [47]: 5.06 µM
- TGI [47]: 30.3 µM
- GI50 [48]: 21.6 µM
- TGI [48]: 62.6 µM
- GI50 [49]: 22.2 µM
- TGI [49]: 58.9 µM
- GI50 [50]: 6.43 µM
- TGI [50]: 61.4 µM
- GI50 [51]: 18.6 µM
- TGI [51]: > 70.8 µM
- GI50 [52]: 14.4 µM
- TGI [52]: 55.9 µM
- GI50 [53]: 22.9 µM
- TGI [53]: 74.4 µM
- GI50 [54]: 23 µM
- TGI [54]: > 75.9 µM
- GI50 [55]: 13.4 µM
- TGI [55]: 36.6 µM
- GI50 [56]: 5.64 µM
- TGI [56]: > 57.4 µM
- GI50 [57]: 20.9 µM
- TGI [57]: 74.7 µM
- GI50 [58]: 21 µM
- TGI [58]: 74.2 µM

— PubChem BioAssay (NCI)
